Laboratory results from PMC10067601, “Identification of a peptide ligand for human ALDH3A1 through peptide phage display: Prediction and characterization of protein interaction sites and inhibition of ALDH3A1 enzymatic activity” (Frontiers in Molecular Biosciences, 2023).
Entries after “also recorded” stand apart in the source; their conditions may differ.

Columns and labels:
[1] = molecular target: T1, human recombinant ALDH3A1 (Homo sapiens, UniProt P30838); experiment: ALDH3A1 enzymatic assay, benzaldehyde oxidation; assay type: biochemical; details: for Enzymatic Activity, AVERAGE %: mean of triplicates, STDEV % in r34
T1 construct: 6xHis (C); made in house; host or cells: E. coli, with chaperone co-expression (pG-KJE8 plasmid)
T1 sequence (P30838 1-453): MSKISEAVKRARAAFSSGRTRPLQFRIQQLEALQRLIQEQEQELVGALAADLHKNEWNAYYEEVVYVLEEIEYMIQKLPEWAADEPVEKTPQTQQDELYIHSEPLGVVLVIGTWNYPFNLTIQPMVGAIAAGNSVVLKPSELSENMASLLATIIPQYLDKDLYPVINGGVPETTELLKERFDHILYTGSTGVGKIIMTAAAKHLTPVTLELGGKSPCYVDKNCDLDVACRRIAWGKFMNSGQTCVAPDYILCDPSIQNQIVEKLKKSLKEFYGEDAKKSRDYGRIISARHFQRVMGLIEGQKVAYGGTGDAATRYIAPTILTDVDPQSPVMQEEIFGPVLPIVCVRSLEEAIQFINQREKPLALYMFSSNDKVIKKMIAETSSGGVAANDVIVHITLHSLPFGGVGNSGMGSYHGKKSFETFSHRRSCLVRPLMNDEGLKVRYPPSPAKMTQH
Experimental: The ability of ALDH3A1 to oxidize benzaldehyde in the presence of P1 was estimated by monitoring the production of NADH as described earlier with minor modifications ([Voulgaridou et al., 2013]). Human recombinant ALDH3A1 was combined with P1 and diluted in Milli-Q water, at 1:1,000. The final reaction was placed in a 0.5 mL quartz cuvette containing 50 mM Tris-HCl pH 8.5, 50 mM 2-Mercaptoethanol, 1.5 mM […], 20 nM ALDH3A1, 20 μM P1, and 1 mM Benzaldehyde. The reaction was initiated by the addition of the benzaldehyde substrate and was monitored at 340 nm for 5 min using a spectrophotometer (Libra S22, Biochrom Ltd, Cambridge, United Kingdom). In the case of CB29, the final reaction contained 40 μM CB29. Enzymatic activity was calculated as dOD/dT∗molarextinctioncoeiffcient∗pathcorrection∗enzyme^′sconcentrationinfinalreaction where, dT = minutes, molar extinction coefficient = 6220 M^-1/cm, path correction = 1 cm.
All experiments were conducted in triplicates and presented as % of the control’s enzymatic activity. As a control, the final reaction contained the respective Milli-Q water volume without P1 or CB29.
At least three independent experiments were performed for each condition tested. The values are expressed as the mean ± standard deviation (SD). Statistical analysis was performed with Graph Pad Prism software (version 9.4.1) (Graph Pad Inc., La Jolla, CA, United States). For all assays, statistical differences between groups were evaluated either by Student’s t-test or ANOVA, for multiple comparisons, followed by Dunnett’s or Tukey’s test. A level of p < 0.01 was considered statistically significant.

[2] = molecular target: T1, human recombinant ALDH3A1; experiment: Peptide ELISA, P1 coated, serially diluted ALDH3A1; assay type: binding
Experimental: An ELISA with the synthetic peptide P1 was performed as described ([Thermo Scientific, 2010]). P1 (50 μg/mL) diluted in Coating Buffer (0.2 M sodium carbonate/bicarbonate, pH 9.4) was coated overnight at 4°C under agitation. After three washes with TBST (25 mM Tris, 0.15 M sodium chloride, pH 7.2 containing 0.1% Tween 20), the wells were blocked with 300 μL per well with Blocking Buffer (TBST containing 4% w/v BSA) overnight at 4°C under agitation. After another three washes with TBST, 100 μL of 2-fold serial dilutions of ALDH3A1 in Blocking Buffer were added in each well and the plate was incubated for 1 h at RT under gentle agitation. Following four washes with TBST, 100 μL of rabbit anti-ALDH3A1 antibody, diluted 1:1,000 in Blocking Buffer, were added and the plate was incubated for 2 h at RT under gentle agitation. After the plate was washed 4 times with TBST, it was incubated with 100 μL of anti-rabbit IgG horseradish-peroxidase conjugated and diluted 1:5,000 in Blocking Buffer, for 2 h at RT. Then, the plate was washed 6 times with TBST, and 100 μL of ABTS [2,2′-azino-bis(3-ethylbenzothiazoline-6-sulfonic acid)] solution (ready-to-use) were added. After 1 h of incubation in darkness at RT under agitation, the plate was measured at 405 nm, with wavelength correction at 650 nm, using an ELISA plate reader (EnSpire Multimode Plate Reader, Perkin Elmer, Waltham, MA, United States). During wash steps, liquids were dispersed in the sink, the plate was tapped vigorously on a paper towel, refilled with Wash Buffer, and incubated for 5 min at RT under agitation.
Next, peptide ELISA was performed to test whether the synthetic peptide P1 interacts with the hALDH3A1 protein. Specifically, P1 was coated in abundance in a 96-well plate and subsequently, hALDH3A1 was added to each well in serial dilutions. For detecting the putative peptide/ALDH3A1 interaction a rabbit anti-ALDH3A1 antibody along with a secondary horseradish peroxidase-conjugated anti-rabbit antibody were used in a sandwich ELISA. In each step, the excessive, unbound ALDH3A1 or antibody was removed through repetitive washes, while a ready-to-use ABTS solution was used as a colorimetric substrate for detecting the presence of horseradish peroxidase activity.

[3] = 20 μM P1 (n = 4) or 40 μM CB29 (n = 3)
[4] = X is log(dilution of ALDH3A1), P1 50 μg/ml coated

With “WPTYVSPFRSPP [P1, …, prevailing 12-mer phage display peptide, synthesised by Genecust]” the “Enzymatic activity, % of control, AVERAGE of experiments” value ([1]; 20 μM P1 (4 experiments) or 40 μM CB29 (3 experiments), 1 mM benzaldehyde, 20 nM ALDH3A1, pH 8.5, 340 nm, 5 min) was 53.6795%, the “25% Percentile, % of control activity” value [1, 3] was 48.44 and the “75% Percentile, % of control activity” value [1, 3] was 60.33. For the same sequence, the “Lower 95% CI of mean, % of control activity” value [1, 3] was 43.07, the “Maximum, % of control activity” value [1, 3] was 63.01 and the “Mean, % of control activity” value [1, 3] was 53.68. The “Median, % of control activity” value [1, 3] was 52.27, the “Minimum, % of control activity” value [1, 3] was 47.18 and the “Upper 95% CI of mean, % of control activity” value [1, 3] was 64.29. For the same sequence, the “Reduction in hALDH3A1 activity against benzaldehyde” value ([1]; 20 μM P1, 20 nM ALDH3A1, 1 mM benzaldehyde, 50 mM Tris-HCl pH 8.5, 50 mM 2-mercaptoethanol, NADH at 340 nm, 5 min, vs control) was roughly 50%, the “Enzymatic activity, % of control (Mean%)” value ([1]; 20 μM P1, P1 Experiment 1, mean of n = 3, 1 mM benzaldehyde, 20 nM ALDH3A1, pH 8.5, 340 nm) was 52.2857% and the “Enzymatic activity, % of control (Mean%)” value ([1]; 20 μM P1, P1 Experiment 2, mean of n = 3, 1 mM benzaldehyde, 20 nM ALDH3A1, pH 8.5, 340 nm) was 63.0078%. The “Enzymatic activity, % of control (Mean%)” value ([1]; 20 μM P1, fourth experiment line of Sheet6, mean of n = 3, 1 mM benzaldehyde, 20 nM ALDH3A1, pH 8.5, 340 nm) was 47.1765%, the “Enzymatic activity, % of control (Mean%)” value ([1]; 20 μM P1, third experiment line of Sheet6, mean of n = 3, 1 mM benzaldehyde, 20 nM ALDH3A1, pH 8.5, 340 nm) was 52.2481% and the “Effectiveness of inhibition compared with CB29” value ([1]; 20 μM P1 vs 40 μM CB29, benzaldehyde) was “comparable to the inhibition capacity of the known hALD3A1 inhibitor CB29; also recorded: comparable with the inhibition caused by the CB29 molecule”. The “95,00% CI of diff, control vs. compound” value ([1]; Dunnett's multiple comparisons, 20 μM P1 or 40 μM CB29) was 37,24 to 55,40, the “Mean Diff, control vs. compound” value ([1]; Dunnett's multiple comparisons, 20 μM P1 or 40 μM CB29, % of control activity) was 46.32 and the “Enzymatic Activity, AVERAGE %” value ([1]; Experiment 3, 20μM P1, % of control (control = 100)) was 52.2481%. For the same sequence, the “Enzymatic Activity, AVERAGE of triplicates” value ([1]; Experiment 3, 20μM P1, mean of triplicates, STDEV in r31) was 7.566 µmol/min/mg, the “Enzymatic Activity, AVERAGE %” value ([1]; Experiment 4, 20μM P1, % of control (control = 100)) was 47.1765% and the “Enzymatic Activity, AVERAGE of triplicates” value ([1]; Experiment 4, 20μM P1, mean of triplicates, STDEV in r31) was 9.945 µmol/min/mg. For the same sequence, the “Enzymatic Activity, AVERAGE of triplicates” value ([1]; P1 Experiment 1, 20 μM, mean of n = 3) was 7.9584 µmol/min/mg, the “Enzymatic Activity, AVERAGE of triplicates” value ([1]; P1 Experiment 2, 20 μM, mean of n = 3) was 11.9878 µmol/min/mg and the “Bottom, 95% CI (profile likelihood)” value ([2]; 4PL fit, P1 50 μg/ml coated) was -0,6000 to 0,3171. For the same sequence, the “HillSlope, 95% CI (profile likelihood)” value ([2]; 4PL fit, P1 50 μg/ml coated) was 0,7500 to 2,101, the “LogIC50, 95% CI (profile likelihood)” value ([2]; 4PL fit, P1 50 μg/ml coated) was -2,813 to -1,638 and the “R squared (4PL fit)” value ([2]; 4PL fit, P1 50 μg/ml coated) was 0.9777. The “Top, 95% CI (profile likelihood)” value ([2]; 4PL fit, P1 50 μg/ml coated) was 0,5633 to 0,6007, the “Binding of P1 to ALDH3A1” value ([2]; P1 50 μg/mL coated, 2-fold serial dilutions of ALDH3A1, 405 nm-650 nm) was “ALDH3A1 dose-dependent increase in absorbance was observed, indicating the specific binding of P1 to ALDH3A1; also recorded: confirmed the interaction of ALDH3A1 with the synthetic peptide P1 in a concentration-dependent manner” and the “Bottom (4PL fit)” value ([2]; Sigmoidal, 4PL, X is log(dilution of ALDH3A1), P1 50 μg/ml coated) was 0.2386. For the same sequence, the “Top (4PL fit)” value ([2]; Sigmoidal, 4PL, X is log(dilution of ALDH3A1), P1 50 μg/ml coated, OD 405nm - 650nm) was 0.5773, the “HillSlope (4PL fit)” value [2, 4] was 1.408 and the “LogIC50 (4PL fit)” value [2, 4] was -1.813. The “Span (4PL fit)” value [2, 4] was 0.3387.
